Key:
Format in all cases: cell-based
[1] = system: HBV; assay: anti-HBV activity, HepG2.2.15 stable transfected cell line, HBV DNA from secreted virions by realtime PCR; details: Hepatitis B virus, 144 h, HepG2.2.15 cells, 6 days of treatment
[2] = system: HBV; assay: anti HBV activity, HepG2.117 inducibly HBV producing cell line (Tet-off), intracellular HBV DNA by realtime PCR; details: Hepatitis B virus, 72 h, HepG2.117 cells, 3 days of treatment
[3] = Cytotoxicity, HepG2 cells, Resazurin assay; details: human

Structure (SMILES) | EC50 [1] | EC50 [2] | CC50 at 4 days [3]
Cn1cc(S(=O)(=O)NC2(C)COC2)cc1C(=O)Nc1cncc(C(F)(F)F)c1 [Compound 2, 1-Methyl-4-[(3-methyloxetan-3-yl)sulfamoyl]-N-[5-(trifluoromethyl)pyridin-3-yl]-1H-pyrrole-2-carboxamide] | > 1000 nM | 10400 nM | > 25 µM
Cn1cc(S(=O)(=O)NC2(C)CC(F)(F)C2)c(Cl)c1C(=O)Nc1ccnc(Cl)c1 [Compound 65, 3-chloro-N-(2-chloro-4-pyridyl)-4-[(3,3-difluoro-1-methyl-cyclobutyl)-sulfamoyl]-1-methyl-pyrrole-2-carboxamide] | 20 nM | 30 nM | > 25 µM
Cn1cc(S(=O)(=O)NC2(C(F)(F)F)CC2)cc1C(=O)Nc1ccnc(C#N)c1 [Compound 49, N-(2-cyano-4-pyridyl)-1-methyl-4-[[1-(trifluoromethyl)cyclopropyl]-sulfamoyl]pyrrole-2-carboxamide] | 110 nM | 110 nM | > 25 µM
C[C@@H](NS(=O)(=O)c1cn(C)c(C(=O)Nc2cc(F)nc(F)c2)c1F)C(F)(F)F [Compound 30, N-(2,6-difluoro-4-pyridyl)-3-fluoro-1-methyl-4-[[(1R)-2,2,2-trifluoro-1-methyl-ethyl]sulfamoyl]pyrrole-2-carboxamide] | < 100 nM | 10 nM | > 25 µM
C[C@@H](NS(=O)(=O)c1cn(C)c(C(=O)Nc2ccnc(C(C)(F)F)c2)c1F)C(F)(F)F [Compound 129, N-[2-(1,1-difluoroethyl)-4-pyridyl]-3-fluoro-1-methyl-4-[[(1R)-2,2,2-trifluoro-1-methyl-ethyl]sulfamoyl]pyrrole-2-carboxamide] | 810 nM | 400 nM | > 25 µM
C[C@@H](NS(=O)(=O)c1cn(C)c(C(=O)Nc2ccnc(Br)c2)c1F)C(C)(F)F [Compound 124, N-(2-bromo-4-pyridyl)-4-[[(1R)-2,2-difluoro-1-methyl-propyl]sulfamoyl]-3-fluoro-1-methyl-pyrrole-2-carboxamide] | < 100 nM | 10 nM | > 25 µM
Cn1cc(S(=O)(=O)NC2(C(F)(F)F)CCC2)cc1C(=O)Nc1ccnc(C#N)c1 [Compound 42, N-(2-cyano-4-pyridyl)-1-methyl-4-[[1-(trifluoromethyl)cyclobutyl]-sulfamoyl]pyrrole-2-carboxamide] | 50 nM | 80 nM | > 25 µM
C[C@@H](NS(=O)(=O)c1cn(C)c(C(=O)Nc2ccnc(C(F)(F)F)c2)c1Cl)C(F)(F)F [Compound 10, 3-Chloro-1-methyl-4-{[(1R)-2,2,2-trifluoro-1-methylethyl]sulfamoyl}-N-[2-(trifluoromethyl)pyridin-4-yl]-1H-pyrrole-2-carboxamide] | 70 nM | 160 nM | > 25 µM
C[C@@H](NS(=O)(=O)c1cn(C)c(C(=O)Nc2cc(F)nc(F)c2)c1Cl)C(F)(F)F [Compound 35, 3-chloro-N-(2,6-difluoro-4-pyridyl)-1-methyl-4-[[(1R)-2,2,2-trifluoro-1-methyl-ethyl]sulfamoyl]pyrrole-2-carboxamide] | 5 nM | 10 nM | > 25 µM
CC[C@H](NS(=O)(=O)c1cc(C(=O)Nc2ccnc(C#N)c2)n(C)c1)C(F)(F)F [Compound 41, N-(2-cyano-4-pyridyl)-1-methyl-4-[[(1S)-1-(trifluoromethyl)propyl]-sulfamoyl]pyrrole-2-carboxamide] | 70 nM | 100 nM | > 25 µM
C[C@@H](NS(=O)(=O)c1cn(C)c(C(=O)Nc2ccnc(C#N)c2)c1Cl)C(C)(F)F [Compound 96, 3-chloro-N-(2-cyano-4-pyridyl)-4-[[(1R)-2,2-difluoro-1-methyl-propyl]sulfamoyl]-1-methyl-pyrrole-2-carboxamide] | 40 nM | 40 nM | > 25 µM
Cn1cc(S(=O)(=O)NC(C)(C)C)c(Cl)c1C(=O)Nc1ccnc(C#N)c1 [Compound 6, 4-(tert-Butylsulfamoyl)-3-chloro-N-(2-cyanopyridin-4-yl)-1-methyl-1H-pyrrole-2-carboxamide] | 590 nM | 650 nM | > 25 µM
C[C@@H](NS(=O)(=O)c1cn(C)c(C(=O)Nc2cccc(C#N)n2)c1F)C(F)(F)F [Compound 25, N-(6-cyano-2-pyridyl)-3-fluoro-1-methyl-4-[[(1R)-2,2,2-trifluoro-1-methyl-ethyl]sulfamoyl]pyrrole-2-carboxamide] | 190 nM | > 1000 nM | > 25 µM
Cc1cc(NC(=O)c2cc(S(=O)(=O)NC3(C)COC3)cn2C)cnc1F [Compound 3, N-(6-Fluoro-5-methylpyridin-3-yl)-1-methyl-4-[(3-methyloxetan-3-yl)sulfamoyl]-1H-pyrrole-2-carboxamide] | > 1000 nM | 750 nM | > 25 µM
Cn1cc(S(=O)(=O)NC2(C(F)(F)F)CCC2)cc1C(=O)Nc1ccnc(Cl)c1 [Compound 48, N-(2-chloro-4-pyridyl)-1-methyl-4-[[1-(trifluoromethyl)cyclobutyl]-sulfamoyl]pyrrole-2-carboxamide] | 60 nM | 40 nM | > 25 µM
C[C@@H](NS(=O)(=O)c1cn(C)c(C(=O)Nc2ccnc(C(F)(F)F)c2)c1F)C(C)(F)F [Compound 60, 4-[[(1R)-2,2-difluoro-1-methyl-propyl]sulfamoyl]-3-fluoro-1-methyl-N-[2-(trifluoromethyl)-4-pyridyl]pyrrole-2-carboxamide] | 240 nM | 40 nM | > 25 µM
C[C@@H](NS(=O)(=O)c1cn(C)c(C(=O)Nc2ccc(F)cn2)c1F)C(F)(F)F [Compound 28, 3-fluoro-N-(5-fluoro-2-pyridyl)-1-methyl-4-[[(1R)-2,2,2-trifluoro-1-methyl-ethyl]sulfamoyl]pyrrole-2-carboxamide] | 360 nM | 700 nM | > 25 µM
Cn1cc(S(=O)(=O)NC2(C)COC2)cc1C(=O)Nc1cc(C(F)(F)F)ccn1 [Compound 4, 1-Methyl-4-[(3-methyloxetan-3-yl)sulfamoyl]-N-[4-(trifluoromethyl)pyridin-2-yl]-1H-pyrrole-2-carboxamide] | > 1000 nM | 2340 nM | > 25 µM
CC(C)NS(=O)(=O)c1cn(C)c(C(=O)Nc2ccnc(C(F)F)c2)c1F [Compound 82, N-[2-(difluoromethyl)-4-pyridyl]-3-fluoro-4-(isopropylsulfamoyl)-1-methyl-pyrrole-2-carboxamide] | 70 nM | 100 nM | > 25 µM
C[C@@H](NS(=O)(=O)c1cn(C)c(C(=O)Nc2ccnc(Cl)c2F)c1F)C(F)(F)F [Compound 118, N-(2-chloro-3-fluoro-4-pyridyl)-3-fluoro-1-methyl-4-[[(1R)-2,2,2-trifluoro-1-methyl-ethyl]sulfamoyl]pyrrole-2-carboxamide] | 100 nM | 10 nM | > 25 µM
CC[C@@H](NS(=O)(=O)c1cn(C)c(C(=O)Nc2ccnc(C(F)F)c2)c1F)C(F)(F)F [Compound 87, N-[2-(difluoromethyl)-4-pyridyl]-3-fluoro-1-methyl-4-[[(1R)-1-(trifluoromethyl)propyl]sulfamoyl]pyrrole-2-carboxamide] | 20 nM | 30 nM | > 25 µM
Cc1cc(NC(=O)c2c(Cl)c(S(=O)(=O)N[C@H](C)C(F)(F)F)cn2C)cc(F)n1 [Compound 137, 3-chloro-N-(2-fluoro-6-methyl-4-pyridyl)-1-methyl-4-[[(1R)-2,2,2-trifluoro-1-methyl-ethyl]sulfamoyl]pyrrole-2-carboxamide] | < 100 nM | 20 nM | > 25 µM
CC[C@@H](NS(=O)(=O)c1cn(C)c(C(=O)Nc2ccnc(C#N)c2)c1Cl)C(F)(F)F [Compound 38, 3-chloro-N-(2-cyano-4-pyridyl)-1-methyl-4-[[(1R)-1-(trifluoromethyl)propyl]-sulfamoyl]pyrrole-2-carboxamide] | 40 nM | 50 nM | > 25 µM
C[C@@H](NS(=O)(=O)c1cn(C)c(C(=O)Nc2ccnc(Cl)c2F)c1Cl)C(F)(F)F [Compound 33, 3-chloro-N-(2-chloro-3-fluoro-4-pyridyl)-1-methyl-4-[[(1R)-2,2,2-trifluoro-1-methyl-ethyl]sulfamoyl]pyrrole-2-carboxamide] | 8 nM | 10 nM | > 25 µM
Cn1cc(S(=O)(=O)NC2(C(F)(F)F)CC2)c(Cl)c1C(=O)Nc1ccnc(Cl)c1 [Compound 45, 3-chloro-N-(2-chloro-4-pyridyl)-1-methyl-4-[[1-(trifluoromethyl)cyclopropyl]-sulfamoyl]pyrrole-2-carboxamide] | 50 nM | 40 nM | > 25 µM
C[C@@H](NS(=O)(=O)c1cn(C)c(C(=O)Nc2cc(Cl)nc(Cl)c2)c1F)C(F)(F)F [Compound 126, N-(2,6-dichloro-4-pyridyl)-3-fluoro-1-methyl-4-[[(1R)-2,2,2-trifluoro-1-methyl-ethyl]sulfamoyl]pyrrole-2-carboxamide] | 20 nM | 20 nM | > 25 µM
C[C@@H](NS(=O)(=O)c1cn(C)c(C(=O)Nc2ccnc(C#N)c2F)c1Cl)C(F)(F)F [Compound 143, 3-chloro-N-(2-cyano-3-fluoro-4-pyridyl)-1-methyl-4-[[(1R)-2,2,2-trifluoro-1-methyl-ethyl]sulfamoyl]pyrrole-2-carboxamide] | 180 nM | 20 nM | > 25 µM
Cc1cc(NC(=O)c2c(Cl)c(S(=O)(=O)N[C@H](C)C(F)(F)F)cn2C)cnc1F [Compound 13, 3-Chloro-N-(6-fluoro-5-methylpyridin-3-yl)-1-methyl-4-{[(1R)-2,2,2-trifluoro-1-methylethyl]sulfamoyl}-1H-pyrrole-2-carboxamide] | 110 nM | 180 nM | > 25 µM
